SMILES strings stand for the structures. Read-outs that look alike come from different tables or passages of the source.

Series [1] deals with SREBP. As to the kind of experiment: Reporter Screening Assay (SRE-luciferase reporter, HepG2). The class given is cell-based. The note with it: SREBPv1 Reporter cell line HepG2, 24 hours, 0.01 uM to 10 uM, read-out: I: Reporter Screening Assay (Ave EC50 (nM)). As to the method: Reporter Screening Assay: This assay was used to evaluate the effect on transcriptional activity SREBP of selected compounds using an SRE-luciferase reporter construct. On day 1, 10,000 cells were seeded in a 96 well (white) plate as per the plate map in Growth media without antibiotics. Cells were incubated at 37° C. for 8 hours. After 8 hours, cells were washed with DPBS for complete removal of FBS. DPBS was completely removed and Growth media was replaced with phenol free treatment medium (90 μl) with different FBS concentrations. The cells were then incubated at 37° C. for 24 hours with varying doses (0.01 uM to 10 uM) of compounds. Then a Luciferase assay was performed.
Reagents for performing Luciferase assay were stored at −20° C. To a tube of lyophilized assay substrate was added 1 mL Substrate Solvent and mixed well. The Substrate tube after reconstitution was covered with aluminum foil so as to keep it protected from light. The assay buffer was thawed to room temperature. To 20 mL Assay Buffer was added 200 µL of reconstituted 100× Substrate and mixed well. The reconstituted substrate as well as the assay solution (buffer + substrate) was protected from light throughout the procedure by keeping it covered with aluminum foil. Using a multi-channel pipette, 100 μL Assay Solution (buffer + substrate) was added directly to each sample well in Plate 1, which was incubated for 30 min (plate was covered with aluminum foil). After 30 min incubation, the plate was read for total luminescence. Each well was read for 2 seconds in a plate luminometer. (Microplate reader Envision Microplate reader from Perkin Elmer). Precaution was taken to incubate plate exactly for 30 min prior to reading on the plate reader.
Reporter Assay Materials: SREBPv1 Reporter cell line: HepG2-#32251. Growth Medium: MEM (Corning 10-010), 10% FBS, 1% GlutaMax (Invitrogen Catalog #35050061), […] (Invitrogen Catalog #A1113803) and 1% Penicillin-Streptomycin (Pen-Strep). Treatment Media: Phenol-free MEM (Invitrogen Catalog #51200-038) and 1% GlutaMax (Invitrogen Catalog #35050061). Luciferase Assay: LightSwitch Luciferase Assay Kit (Catalog #32032). LDH assay: Pierce LDH Cytotoxicity Assay Kit (Catalog #SD249616).
For orientation: In a reporter assay the amount or activity of a reporter protein is the signal.

The nature of series [2]: Stability in human liver microsomes. The class given is in vitro ADME. The conditions noted are these: 60 min at 37° C., NADPH. As to the method:
(§1) Half-life Human Microsomes: Compounds were evaluated for stability in human liver microsomes. A 10 mM stock solution of the compound being evaluated was prepared in DMSO and diluted with water:acetonitrile (1:1) to a concentration of 1 mM. A working concentration of 100 μM was prepared by further dilution with water:acetonitrile (1:1). To make the preincubation mixture, 2.5 μL of the diluted compound was combined with 75 μL of human liver microsomes at 3.33 mg/mL, and 85 μL of 100 mM potassium phosphate buffer, and this mixture was pre-incubated for 10 min at 37° C. To make the 60 minute mixture without cofactor, 32.5 μL of the preincubation mixture was combined with 17.5 μL of 100 mM potassium phosphate buffer and incubated for 60 min at 37° C. To make the 0 min sample with cofactor (NADPH), 16.25 μL of the preincubation mixture was combined with 200 μL of acetonitrile containing internal standard and 8.75 μL of cofactor (NADPH). To make the incubation mixture, 62 μL of cofactor (2.85 mM) was combined with the remaining incubation mixture, and incubated for 60 min at 37° C. To prepare the sample mixture to be evaluated, 25 μL incubation mixture was combined with 200 μL of acetonitrile containing internal standard and vortexed for 5 min at 1200 rpm, then centrifuged for 10 min at 4000 rpm. The supernatant was diluted 2 fold with water and injected on LC-MS/MS. The sample mixture was evaluated by LC-MS/MS using 10 mM ammonium acetate with 0.1% FA as the aqueous mobile phase, and methanol as the organic mobile phase.
(Liver microsomes are vesicles of endoplasmic reticulum, rich in cytochrome P450 enzymes.)

Series [3] can be described thus: Stability in mouse liver microsomes. The series is classed as in vitro ADME. As to the method: as §1
Half-life Mouse Microsomes: Compounds were evaluated in mouse liver microsomes following a similar procedure as described above for human liver microsomes. A similar procedure could be used to evaluate compounds in rat liver microsomes.

The test system of series [4] is ACACA. In words: Gene expression in HepG2 cells (qPCR), ACACA. The series is classed as cell-based. The conditions noted are these: for 48 hours, normalized to β-Actin, relative to mock or vehicle treated cells (ΔΔCT). As to the method: Gene Expression: The effect of selected compounds on the gene expression of HepG2 cells was evaluated. HepG2 cells (P2) were seeded in 24 well plate (80,000 cells/well) for RNA extraction and in a 96 well plate (10,000 cells/well) for Cell Titer Glow (CTG). The media used was DMEM and contained 10% FBS. Each compound was evaluated at […] for 48 hours. Two biological replicates per experimental group were evaluated for RNA. For gene analysis, RNA was harvested with RNEasy kit and 20-100 ng used to synthesize cDNA with random primers. Quantitative PCR was performed on 1 pg to 100 ng cDNA for the following genes: ACACA, ACLY, FASN, LSS, PNPLA3. Gene expression levels were normalized with housekeeping gene, β-Actin, and relative expression levels determined using ΔΔCT method comparing treated to mock or vehicle treated cells as a baseline. “Total” gene expression refers to the average of the values of the 5 genes listed above.
In general terms: Quantitative PCR measures a nucleic acid by following its amplification.

By EC50 is commonly meant the concentration that produces a half-maximal response. In the case of `CC(C)[C@H](N)C(=O)OCC1(c2cc(-c3csc(-c4ccc(C(=O)N5CCC(O)CC5)cc4Cl)c3)ccn2)CC1` [Compound I-1629123, (l-(4-(5-(2-chloro-4-(4-hydroxypiperidine-1-carbonyl)phenyl)thiophen-3-yl)pyridin-2-yl)cyclopropyl)methyl L-valinate], the EC50 in series [1] is less than 249 nM.
For `CC(C)(O)COc1cc(-c2csc(-c3ccc(C(=O)N4CCC(O)CC4)cc3Cl)c2)ccn1` [Compound I-1629101, (3-chloro-4-(4-(2-(2-hydroxy-2-methylpropoxy)pyridin-4-yl)thiophen-2-yl)phenyl)(4-hydroxypiperidin-1-yl)methanone], in series [2], the “percent remaining after 60 min in human liver microsomes” value was “+++ (≥60.1 = +++)”. Moreover, the “percent remaining after 60 min in mouse liver microsomes” value in series [3] was “+++ (≥60.1 = +++)”. Besides, the EC50 in series [1] (Homo sapiens) was greater than 500 nM.
On to `CC(C)[C@H](N)C(=O)OC1CCN(C(=O)c2ccc(-c3cc(-c4ccnc(C5(CO)CC5)c4)cs3)c(Cl)c2)CC1` [Compound I-1629122, 1-(3-chloro-4-(4-(2-(1-(hydroxymethyl)cyclopropyl)pyridin-4-yl)thiophen-2-yl)benzoyl)piperidin-4-yl L-valinate], for which, in series [1] (Homo sapiens), the EC50 was less than 249 nM.
Consider `O=C(c1ccc(-c2cc(-c3ccnc(OC4CC4)c3)cs2)c(Cl)c1)N1CCC(O)CC1` [Compound I-1629059, (3-chloro-4-(4-(2-cyclopropoxypyridin-4-yl)thiophen-2-yl)phenyl)(4-hydroxypiperidin-1-yl)methanone], for which the “A: ACACA, effect of compounds on gene expression of HepG2 cells” value (“A: ACACA, effect of compounds” below) in series [4] is listed as “++ (0.31-0.7509 = ++)”. Also, in series [2], the “percent remaining after 60 min in human liver microsomes” value is reported as “+++ (≥60.1 = +++)”. Further, the “percent remaining after 60 min in mouse liver microsomes” value in series [3] is “+++ (≥60.1 = +++)”. In series [1] (Homo sapiens), the EC50 is less than 249 nM.
As for `O=C(c1ccc(-c2cc(-c3ccnc(OC4CC(CO)C4)c3)cs2)c(Cl)c1)N1CCC(O)CC1` (stereo not shown) [Compound I-1629110, (3-chloro-4-(4-(2-(3-(hydroxymethyl)cyclobutoxy)pyridin-4-yl)thiophen-2-yl)phenyl)(4-hydroxypiperidin-1-yl)methanone], the “percent remaining after 60 min in human liver microsomes” value in series [2] is “+++ (≥60.1 = +++)”. The “percent remaining after 60 min in mouse liver microsomes” value in series [3] is given as “+++ (≥60.1 = +++)”. The EC50 in series [1] (Homo sapiens) was less than 249 nM.
Turning to `O=C(c1ccc(-c2cc(-c3ccnc(C4CCOCC4)c3)cs2)c(Cl)c1)N1CCC(O)CC1` [Compound I-1628752, (3-chloro-4-(4-(2-(tetrahydro-2H-pyran-4-yl)pyridin-4-yl)thiophen-2-yl)phenyl)(4-hydroxypiperidin-1-yl)methanone], in series [4], the “A: ACACA, effect of compounds” value is given as “+ (>0.751 = +)”. Further, the “percent remaining after 60 min in human liver microsomes” value in series [2] is listed as “+ (0-30 = +)”. In series [3], the “percent remaining after 60 min in mouse liver microsomes” value is “+++ (≥60.1 = +++)”. Further, in series [1] (Homo sapiens), the EC50 was greater than 500 nM.
In the case of `O=C(c1ccc(-c2cc(-c3ccnc(CC4(O)CCC4)c3)cs2)c(Cl)c1)N1CCC(O)CC1` [Compound I-1629077, (3-chloro-4-(4-(2-((1-hydroxycyclobutyl)methyl)pyridin-4-yl)thiophen-2-yl)phenyl)(4-hydroxypiperidin-1-yl)methanone], in series [4], the “A: ACACA, effect of compounds” value is “++ (0.31-0.7509 = ++)”. For the same compound, the “percent remaining after 60 min in human liver microsomes” value in series [2] was “+ (0-30 = +)”. Further, in series [3], the “percent remaining after 60 min in mouse liver microsomes” value is on record as “++ (30.1-60 = ++)”. Further, in series [1] (Homo sapiens), the EC50 is less than 249 nM.
Take `O=C(c1ccc(-c2cc(-c3ccnc(C4(CO)CCC4)c3)cs2)c(Cl)c1)N1CCC(O)CC1` [Compound I-1629089, (3-chloro-4-(4-(2-(1-(hydroxymethyl)cyclobutyl)pyridin-4-yl)thiophen-2-yl)phenyl)(4-hydroxypiperidin-1-yl)methanone]: in series [2], the “percent remaining after 60 min in human liver microsomes” value is reported as “+ (0-30 = +)”. For the same compound, the “percent remaining after 60 min in mouse liver microsomes” value in series [3] is on record as “+++ (≥60.1 = +++)”. The EC50 in series [1] (Homo sapiens) was greater than 500 nM.
As for `O=C(c1ccc(-c2cc(-c3ccnc(O[C@@H]4CO[C@H]5[C@@H]4OC[C@H]5O)c3)cs2)c(Cl)c1)N1CCC(O)CC1` [Compound I-1629106, (3-chloro-4-(4-(2-(((3R,3aR,6R,6aR)-6-hydroxyhexahydrofuro [3,2-b]furan-3-yl)oxy)pyridin-4-yl)thiophen-2-yl)phenyl)(4-hydroxypiperidin-1-yl)methanone], in series [2], the “percent remaining after 60 min in human liver microsomes” value is listed as “+++ (≥60.1 = +++)”. For the same compound, in series [3], the “percent remaining after 60 min in mouse liver microsomes” value is given as “+++ (≥60.1 = +++)”. In addition, the EC50 in series [1] (Homo sapiens) is less than 249 nM.
For `O=C(c1ccc(-c2cc(-c3ccnc(C4(CO)CC4)c3)cs2)c(Cl)c1)N1CC[C@H](O)[C@@H](F)C1` [Compound I-1629121, (3-chloro-4-(4-(2-(l-(hydroxymethyl)cyclopropyl)pyridin-4-yl)thiophen-2-yl)phenyl)((3S,4S)-3-fluoro-4-hydroxypiperidin-1-yl)methanone], the “percent remaining after 60 min in mouse liver microsomes” value in series [3] is “+++ (≥60.1 = +++)”. The EC50 in series [1] (Homo sapiens) is less than 249 nM.
With `O=C(c1ccc(-c2cc(-c3ccnc(OC4COC4)c3)cs2)c(Cl)c1)N1CCC(O)CC1` [Compound I-1629100, (3-chloro-4-(4-(2-(oxetan-3-yloxy)pyridin-4-yl)thiophen-2-yl)phenyl)(4-hydroxypiperidin-1-yl)methanone], in series [2], the “percent remaining after 60 min in human liver microsomes” value is “+++ (≥60.1 = +++)”. In addition, the “percent remaining after 60 min in mouse liver microsomes” value in series [3] is given as “+++ (≥60.1 = +++)”. In series [1] (Homo sapiens), the EC50 was greater than 500 nM.
On to `O=C(c1ccc(-c2cc(-c3ccnc4c3OCC(CO)O4)cs2)c(Cl)c1)N1CCC(O)CC1` (racemic) [Compound I-1629181, (3-chloro-4-(4-(3-(hydroxymethyl)-2,3-dihydro-[1,4]dioxino[2,3-b]pyridin-8-yl)thiophen-2-yl)phenyl)(4-hydroxypiperidin-1-yl)methanone], for which the EC50 in series [1] (Homo sapiens) was less than 249 nM.
Regarding `O=C(c1ccc(-c2cc(-c3ccnc(OCC4CC(O)C4)c3)cs2)c(Cl)c1)N1CCC(O)CC1` (stereo not shown) [Compound I-1629118, (3-chloro-4-(4-(2-((3-hydroxycyclobutyl)methoxy)pyridin-4-yl)thiophen-2-yl)phenyl)(4-hydroxypiperidin-1-yl)methanone], the “percent remaining after 60 min in human liver microsomes” value in series [2] was “+++ (≥60.1 = +++)”. Further, the “percent remaining after 60 min in mouse liver microsomes” value in series [3] is given as “+++ (≥60.1 = +++)”. For the same compound, in series [1] (Homo sapiens), the EC50 was less than 249 nM.
Consider `O=C(c1ccc(-c2cc(-c3ccnc(OC4CC(O)C4)c3)cs2)c(Cl)c1)N1CCC(O)CC1` (stereo not shown) [Compound I-1629124, (3-chloro-4-(4-(2-(3-hydroxycyclobutoxy)pyridin-4-yl)thiophen-2-yl)phenyl)(4-hydroxypiperidin-1-yl)methanone], for which the “percent remaining after 60 min in mouse liver microsomes” value in series [3] is “+++ (≥60.1 = +++)”. Moreover, the EC50 in series [1] (Homo sapiens) is less than 249 nM.

Source of the values: patent publication US20230147993A1, “THIOPHENE COMPOUNDS WITH CYCLIC AMIDES, AND USES THEREOF” (Capulus Therapeutics, LLC, priority 2019, published 2023).
